# Data: US10450347B2, “Immunomodulators” (BRISTOL-MYERS SQUIBB COMPANY, priority 2015, dated 2019)
# Starred links: 1 amine or outer side, 2 acyl side, 3 side chain; linkers in the order of their positions; H or OH if unused. Positions of bridges follow the written chain, without caps; N, C: chain ends. Non-standard residues stand in square brackets, D forms with d. Residues, ends and D or L forms follow the SMILES beside them. ξ: configuration not given here. Tyrψ(CN4)Ala = C[C@@H](C(=O)[*:2])n1nnnc1[C@H](Cc1ccc(O)cc1)N[*:1]; X1 = CCCC[C@@H](C(=O)[*:2])n1nnnc1[C@H](Cc1c[nH]c2ccccc12)N[*:1]; X3 = O=C(C[C@@H](CO)C(=O)[*:2])[C@H](Cc1c[nH]c2ccccc12)N[*:1]; X4 = CCCC[C@@H](C(=O)[*:2])n1nnnc1[C@H](Cc1csc2ccccc12)N[*:1]; Morpholine(3S-CO) = O=C(O)[C@@H]1COCCN1; Bta = N[C@@H](Cc1csc2ccccc12)C(=O)O; Hyp = O=C(O)[C@@H]1C[C@@H](O)CN1; NMeNle = CCCC[C@H](NC)C(=O)O; NMeA = CN[C@@H](C)C(=O)O; Orn = NCCC[C@H](N)C(=O)O; Dab = NCC[C@H](N)C(=O)O; Dap = NC[C@H](N)C(=O)O; ξC = NC(CS)C(=O)O; Sar = CNCC(=O)O
# Target: T1, PD-1-Ig/PD-L1-His (Homo sapiens, UniProt Q9NZQ7)
# T1 construct: [hPD-L1(19-239)-tobacco vein mottling virus protease cleavage site (TVMV)-His]; made in house; host or cells: HEK293T cells
# T1 sequence (Q9NZQ7 with tags, fused parts or gaps): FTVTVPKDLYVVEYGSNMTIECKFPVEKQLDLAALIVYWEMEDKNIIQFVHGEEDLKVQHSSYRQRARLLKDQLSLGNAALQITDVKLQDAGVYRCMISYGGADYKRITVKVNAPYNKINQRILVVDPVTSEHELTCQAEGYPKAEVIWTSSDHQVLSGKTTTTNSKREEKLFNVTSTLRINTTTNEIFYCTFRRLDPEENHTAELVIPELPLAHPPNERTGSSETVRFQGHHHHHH
# Assay: PD-1/PD-L1 Homogenous Time-Resolved Fluorescence (HTRF) binding assay
# Conditions: inhibition of PD-1-Ig binding to PD-L1-TVMV-His
# Text: The ability of the macrocyclic peptides of the present disclosure to bind to PD-L1 was investigated using a PD-1/PD-L1 Homogenous Time-Resolved Fluorescence (HTRF) binding assay.
# Homogenous Time-Resolved Fluorescence (HTRF) Assays of Binding of Soluble PD-1 to Soluble PD-L1. Soluble PD-1 and soluble PD-L1 refers to proteins with carboxyl-end truncations that remove the transmembrane-spanning regions and are fused to heterologous sequences, specifically the Fc portion of the human immunoglobuling G sequence (Ig) or the hexahistidine epitope tag (SEQ ID NO: 3) (His). All binding studies were performed in an HTRF assay buffer consisting of dPBS supplemented with 0.1% (w/v) bovine serum albumin and 0.05% (v/v) Tween-20. For the PD-1-Ig/PD-L1-His binding assay, inhibitors were pre-incubated with PD-L1-His (10 nM final) for 15 m in 4 μl of assay buffer, followed by addition of PD-1-Ig (20 nM final) in 1 μl of assay buffer and further incubation for 15 m. PD-L1 fusion proteins from either human, cynomologous macaques, mouse, or other species were used. HTRF detection was achieved using europium crypate-labeled anti-Ig monoclonal antibody (1 nM final) and allophycocyanin (APC) labeled anti-His monoclonal antibody (20 nM final). Antibodies were diluted in HTRF detection buffer and 5 μl was dispensed on top of binding reaction. The reaction was allowed to equilibrate for 30 minutes and signal (665 nm/620 nm ratio) was obtained using an EnVision fluorometer. Additional binding assays were established between PD-1-Ig/PD-L2-His (20 and 5 nM, respectively), CD80-His/PD-L1-Ig (100 and 10 nM, respectively) and CD80-His/CTLA4-Ig (10 and 5 nM, respectively). Binding/competition studies between biotinylated Compound No. 71 and human PD-L1-His were performed as follows. Macrocyclic peptide inhibitors were pre-incubated with PD-L1-His (10 nM final) for 60 minutes in 4 μl of assay buffer followed by addition of biotinylated Compound No. 71 (0.5 nM final) in 1 μl of assay buffer. Binding was allowed to equilibrate for 30 minutes followed by addition of europium crypated labeled Streptavidin (2.5 pM final) and APC-labeled anti-His (20 nM final) in 5 μl of HTRF buffer. The reaction was allowed to equilibrate for 30 m and signal (665 nm/620 nm ratio) was obtained using an EnVision fluorometer.
# Recombinant Proteins. Carboxyl-truncated human PD-1 (amino acids 25-167) with a C-terminal human Ig epitope tag [hPD-1 (25-167)-3S-IG] and human PD-L1 (amino acids 18-239) with a C-terminal His epitope tag [hPD-L1(19-239)-tobacco vein mottling virus protease cleavage site (TVMV)-His] were expressed in HEK293T cells and purified sequentially by recombinant Protein A affinity chromatography and size exclusion chromatography. Human PD-L2-His (Sino Biologicals), CD80-His (Sino Biologicals), CTLA4-Ig (RnD Systems) were all obtained through commercial sources.
Compound,IC50 (numeric values),IC50 (range classes)
"CCCC[C@H]1C(=O)N(C)[C@@H](CCCC)C(=O)N[C@@H](CCCNC(=N)N)C(=O)N[C@H](C(=O)NCC(N)=O)CSCC(=O)N[C@@H](Cc2ccccc2)c2nnnn2[C@@H](C)C(=O)N[C@@H](CC(N)=O)C(=O)N2CCC[C@H]2C(=O)N[C@@H](Cc2cnc[nH]2)C(=O)N[C@@H](CC(C)C)C(=O)N(C)CC(=O)N[C@@H](Cc2c[nH]c3ccccc23)C(=O)N[C@@H](CO)C(=O)N[C@@H](Cc2c[nH]c3ccccc23)C(=O)N1C (single isomer, unassigned) [Example 1002]",200 nM,
CCCC[C@H]1C(=O)N[C@@H](C)C(=O)N[C@H](C(=O)NCC(N)=O)CSCC(=O)N[C@@H](Cc2ccc(O)cc2)C(=O)N(C)[C@@H](C)C(=O)N[C@@H](CC(=O)O)C(=O)N2CCC[C@H]2C(=O)N[C@@H](Cc2cnc[nH]2)C(=O)N[C@@H](CCC(N)=O)C(=O)N2C[C@H](O)C[C@H]2C(=O)N[C@@H](Cc2c[nH]c3ccccc23)C(=O)N[C@@H](CO)C(=O)N[C@@H](Cc2cccc3ccccc23)c2nnnn2[C@@H](CCCC)C(=O)N1C [Example 1103],,100 to 10000 nM
CCCC[C@H]1C(=O)N[C@@H](CCCN)C(=O)N[C@H](C(=O)NCC(N)=O)CSCC(=O)N[C@@H](Cc2ccc(O)cc2)C(=O)N(C)[C@@H](C)C(=O)N[C@@H](CC(N)=O)C(=O)N2CCC[C@H]2C(=O)N[C@@H](Cc2cnc[nH]2)C(=O)N[C@@H](CC(C)C)C(=O)N2C[C@H](O)C[C@H]2C(=O)N[C@@H](Cc2c[nH]c3ccccc23)C(=O)C[C@@H](CO)C(=O)N[C@@H](Cc2csc3ccccc23)c2nnnn2[C@@H](CCCC)C(=O)N1C [Example 1013] ({CH2CO}-Y[NMeA]NPHL[Hyp][X3][X4][NMeNle][Orn]CG-NH2; thioether N-12),,10 to 99 nM
CCCC[C@H]1C(=O)N(C)[C@@H](CCCC)C(=O)N[C@@H](CCCNC(=N)N)C(=O)N[C@H](C(=O)NCC(N)=O)CSCC(=O)N[C@@H](Cc2ccc(O)cc2)c2nnnn2[C@@H](C)C(=O)N[C@@H](CC(N)=O)C(=O)N2CCC[C@H]2C(=O)N[C@@H](Cc2cnc[nH]2)C(=O)N[C@@H](CC(C)C)C(=O)N(C)CC(=O)N[C@@H](Cc2c[nH]c3ccccc23)C(=O)N[C@@H](CO)C(=O)N[C@@H](Cc2c[nH]c3ccccc23)C(=O)N1C [Example 1012] ({CH2CO}-[Tyrψ(CN4)Ala]NPHL[Sar]WSW[NMeNle][NMeNle]RCG-NH2; thioether N-13),30 nM,
CCCC[C@H]1C(=O)N(C)[C@@H](CCCC)C(=O)N[C@@H](C)C(=O)N[C@H](C(=O)NCC(N)=O)CSCC(=O)N[C@@H](Cc2ccc(O)cc2)c2nnnn2[C@@H](C)C(=O)N[C@@H](CC(=O)O)C(=O)N2CCC[C@H]2C(=O)N[C@@H](Cc2c[nH]cn2)C(=O)N[C@@H](CCC(N)=O)C(=O)N2C[C@H](O)C[C@H]2C(=O)N[C@@H](Cc2c[nH]c3ccccc23)C(=O)N[C@@H](CO)C(=O)N[C@@H](Cc2csc3ccccc23)C(=O)N1C [Example 1105] ({CH2CO}-[Tyrψ(CN4)Ala]DPHQ[Hyp]WS[Bta][NMeNle][NMeNle]ACG-NH2; thioether N-13),,100 to 10000 nM
CCCC[C@H]1C(=O)N(C)[C@@H](CCCC)C(=O)N[C@@H](C)C(=O)N[C@H](C(=O)NCC(=O)O)CSCC(=O)N[C@@H](Cc2ccc(O)cc2)c2nnnn2[C@@H](C)C(=O)N[C@@H](CC(=O)O)C(=O)N2CCC[C@H]2C(=O)N[C@@H](Cc2c[nH]cn2)C(=O)N[C@@H](CCC(N)=O)C(=O)N2C[C@H](O)C[C@H]2C(=O)N[C@@H](Cc2c[nH]c3ccccc23)C(=O)N[C@@H](CO)C(=O)N[C@@H](Cc2csc3ccccc23)C(=O)N1C [Example 1110] ({CH2CO}-[Tyrψ(CN4)Ala]DPHQ[Hyp]WS[Bta][NMeNle][NMeNle]ACG-OH; thioether N-13),,100 to 10000 nM
CCCC[C@H]1C(=O)N[C@@H](CCCN)C(=O)NC(C(=O)NCC(N)=O)CSCC(=O)N[C@@H](Cc2ccc(O)cc2)C(=O)N2CCOC[C@H]2C(=O)N[C@@H](CC(N)=O)C(=O)N2CCC[C@H]2C(=O)N[C@@H](CN)C(=O)N[C@@H](CC(C)C)C(=O)N2C[C@H](O)C[C@H]2C(=O)N[C@@H](Cc2c[nH]c3ccccc23)C(=O)N[C@@H](CO)C(=O)N[C@@H](Cc2c[nH]c3ccccc23)c2nnnn2[C@@H](CCCC)C(=O)N1C (stereo partly drawn) [Example 1054] ({CH2CO}-Y[Morpholine(3S-CO)]NP[Dap]L[Hyp]WS[X1][NMeNle][Orn][ξC]G-NH2; thioether N-13),,100 to 10000 nM
CCCC[C@H]1C(=O)N[C@@H](CCCN)C(=O)N[C@H](C(=O)NCC(N)=O)CSCC(=O)N[C@@H](Cc2ccc(O)cc2)C(=O)N(C)[C@@H](C)C(=O)N[C@@H](CC(N)=O)C(=O)N2CCC[C@H]2C(=O)N[C@@H](Cc2cnc[nH]2)C(=O)N[C@@H](CC(C)C)C(=O)N2C[C@H](O)C[C@H]2C(=O)N[C@@H](Cc2c[nH]c3ccccc23)C(=O)N[C@@H](CO)C(=O)N[C@@H](Cc2c[nH]c3ccccc23)c2nnnn2[C@@H](CCCC)C(=O)N1C [Example 1050] ({CH2CO}-Y[NMeA]NPHL[Hyp]WS[X1][NMeNle][Orn]CG-NH2; thioether N-13),,100 to 10000 nM
CCCC[C@H]1C(=O)N[C@@H](CCC(=O)O)C(=O)N[C@H](C(=O)NCC(N)=O)CSCC(=O)N[C@@H](Cc2ccc(O)cc2)C(=O)N2CCOC[C@H]2C(=O)N[C@@H](CC(N)=O)C(=O)N2CCC[C@H]2C(=O)N[C@@H](CN)C(=O)N[C@@H](CC(C)C)C(=O)N2C[C@H](O)C[C@H]2C(=O)N[C@@H](Cc2c[nH]c3ccccc23)C(=O)N[C@@H](CO)C(=O)N[C@@H](Cc2c[nH]c3ccccc23)c2nnnn2[C@@H](CCCC)C(=O)N1C [Example 1053] ({CH2CO}-Y[Morpholine(3S-CO)]NP[Dap]L[Hyp]WS[X1][NMeNle]ECG-NH2; thioether N-13),,10 to 99 nM
CCCC[C@H]1C(=O)N[C@@H](C)C(=O)N[C@H](C(=O)NCC(N)=O)CSCC(=O)N[C@@H](Cc2ccc(O)cc2)C(=O)N2CCOC[C@H]2C(=O)N[C@@H](CC(N)=O)C(=O)N2CCC[C@H]2C(=O)N[C@@H](CN)C(=O)N[C@@H](CC(C)C)C(=O)N2C[C@H](O)C[C@H]2C(=O)N[C@@H](Cc2c[nH]c3ccccc23)C(=O)N[C@@H](CO)C(=O)N[C@@H](Cc2c[nH]c3ccccc23)c2nnnn2[C@@H](CCCC)C(=O)N1C [Example 1055] ({CH2CO}-Y[Morpholine(3S-CO)]NP[Dap]L[Hyp]WS[X1][NMeNle]ACG-NH2; thioether N-13),8 nM,
"CCCC[C@H]1C(=O)N(C)[C@@H](CCCC)C(=O)N[C@@H](CCCNC(=N)N)C(=O)N[C@H](C(=O)NCC(N)=O)CSCC(=O)N[C@@H](Cc2ccccc2)c2nnnn2[C@@H](C)C(=O)N[C@@H](CC(N)=O)C(=O)N2CCC[C@H]2C(=O)N[C@@H](Cc2cnc[nH]2)C(=O)N[C@@H](CC(C)C)C(=O)N(C)CC(=O)N[C@@H](Cc2c[nH]c3ccccc23)C(=O)N[C@@H](CO)C(=O)N[C@@H](Cc2c[nH]c3ccccc23)C(=O)N1C (single isomer, unassigned) [Example 1001]",,100 to 10000 nM
CCCC[C@H]1C(=O)N(C)[C@@H](CCCC)C(=O)N[C@@H](CCC(=O)O)C(=O)N[C@H](C(=O)NCC(N)=O)CSCC(=O)N[C@@H](Cc2ccc(O)cc2)c2nnnn2[C@@H](C)C(=O)N[C@@H](CC(=O)O)C(=O)N2CCC[C@H]2C(=O)N[C@@H](CN)C(=O)N[C@@H](CCC(=O)O)C(=O)N2C[C@H](O)C[C@H]2C(=O)N[C@@H](Cc2c[nH]c3ccccc23)C(=O)N[C@@H](CCN)C(=O)N[C@@H](Cc2c[nH]c3ccccc23)C(=O)N1C [Example 1056] ({CH2CO}-[Tyrψ(CN4)Ala]DP[Dap]E[Hyp]W[Dab]W[NMeNle][NMeNle]ECG-NH2; thioether N-13),,100 to 10000 nM
